Laboratory results: patent publication US8227618B2, “Amine-derivatives having NPY Y5 receptor antagonistic activity and the uses thereof” (Shionogi & Co., Ltd., priority 2009, dated 2012)
pIC50: −log10 of the molar value.

Experiments:
[1] = target: T1, mouse NPY Y5 receptor (Mus musculus, UniProt O70342); assay: Affinity for mouse NPY Y5 receptor ([125I] peptide YY binding, CHO cell membranes); settings: CHO membranes expressing mouse NPY Y5 receptor, [125I] peptide YY 60 pM
T1 construct: expressed in transfected cells
T1 sequence (O70342 1-466): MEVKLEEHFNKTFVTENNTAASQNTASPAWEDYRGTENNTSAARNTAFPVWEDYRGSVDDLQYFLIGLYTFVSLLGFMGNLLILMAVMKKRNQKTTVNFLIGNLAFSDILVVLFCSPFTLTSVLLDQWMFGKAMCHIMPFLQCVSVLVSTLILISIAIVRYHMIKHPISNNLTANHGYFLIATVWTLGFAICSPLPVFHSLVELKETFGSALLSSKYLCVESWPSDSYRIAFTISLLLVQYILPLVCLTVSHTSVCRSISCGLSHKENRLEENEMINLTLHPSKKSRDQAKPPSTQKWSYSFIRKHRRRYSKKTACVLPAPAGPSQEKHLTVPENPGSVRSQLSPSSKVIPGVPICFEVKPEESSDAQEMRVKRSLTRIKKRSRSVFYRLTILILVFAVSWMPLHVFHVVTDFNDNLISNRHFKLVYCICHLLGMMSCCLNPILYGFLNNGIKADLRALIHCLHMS
Source text: cDNA sequence encoding a mouse NPY Y5 receptor (Biochim. Biophys. Acta 1328:83-89, 1997) was cloned in a vector (pME18S, Takebe et al. Mol. Cell. Biol. 8, 466-472). The obtained expression vector was transfected into CHO cells as a host by using Lipofect AMINE reagent (Trademark, Gico BRL Co., Ltd.) according to the instruction manual. The cells that stably express mouse NPY Y5 receptor were obtained.
The membranes prepared from the CHO cells expressing mouse NPY Y5 receptor, the compound of this invention and 30,000 cpm [^125I] peptide YY (60 pM of final concentration: Amersham) were incubated in the assay buffer (20 mM HEPES-Hanks buffer containing 0.1% bovine serum albumin, pH 7.4) at 25° C. for 2 hours, and then the membrane was filtered from the mixture through a glassfilter (GF/C) presoaked with 1% polyethyleneimine. After washing with 50 mM Tris-HCl buffer (pH 7.4), radioactivity retained on the filters was quantified with a gamma counter.
Nonspecific binding was defined as the amount of radioactivity bound to the membranes after incubation in the presence of 200 nM of peptide YY. The 50% inhibitory concentration of the test compound against the specific peptide YY binding (IC50 value) was calculated (Inui, A. et al. Endocrinology 131, 2090-2096 (1992)).

[2] = target: T2, NPY Y5 receptor (Mus musculus, UniProt O70342); assay: Inhibition of Y5 agonist-induced food intake in mice; assay type: in vivo, C57BL/6J mice; settings: 4 hours after dosing
T2 construct: from tissue; host or cells: brain of living male C57BL/6J mice
T2 sequence (O70342 1-466): T1 sequence (O70342 1-466)
Description: Under diethylether anesthesia the skull of male C57BL/6J mice (12-14 week old, 25-30 g) was exposed by making an incision about 1-cm long from external occipital crest to nasal dorsum, and then drilled in the 1-mm lateral position to the left following 1-mm posterior from bregma. After recovery from anesthesia mice were dosed with either 0.5% hydroxypropylmethyl cellulose solution (vehicle, Shin-Etsu Chemical Co., Ltd) or the compounds of this invention suspended in the 0.5% hydroxypropylmethyl cellulose solution. At one hour after the treatment, each animal received saline or a NPY Y5 receptor specific agonist, [cPP^1-7, NPY^19-23, Ala^31, Aib^32, Gln^34]-hPancreatic Polypeptide (0.1 nmol/1.5 μL saline/mouse) through the skull opening using a canula. Residual food was measured at 2 and 4 hours after the treatment. The inhibition ratio of Y5 agonist-induced food intake by the compounds was calculated as follows; inhibition ratio (%)=[1−(food intake (g) by the compound treated and Y5 agonist received mice−food intake (g) by the vehicle treated and saline received mice)/(food intake (g) by the vehicle treated and Y5 agonist received mice−food intake (g) by the vehicle treated and saline received mice)]×100.

[3] = Suppression of body weight gain in high-fat diet-induced obese mice; assay type: in vivo, C57BL/6J mice; settings: 6 mg/kg b.i.d. for 3 weeks, versus vehicle
Description: Prior to administration of the compounds of this invention, male C57BL/6J mice were given a high-fat diet to induce obese. The high-fat diet-induced obese mice (13-14 week old, body weight 28-33 g) were dosed with 0.5% hydroxypropylmethyl cellulose solution (vehicle, Shin-Etsu Chemical Co., Ltd) or the compounds of this invention suspended in the 0.5% hydroxypropylmethyl cellulose solution twice a day (b.i.d.) for 3 weeks with the same diet. The changes in body weight were monitored daily.

[4] = target: T3, P-gp (Mus musculus, UniProt P21447); assay: Potential for drug-drug interactions through P-gp in vivo (Kp with/without cyclosporin A); settings: mice, Kp with versus without cyclosporin A (20 mg/kg)
T3 construct: effectively excreted through P-gp from the brain to vessels; from tissue; host or cells: brain / blood-brain barrier of living C57BL/6J mice
T3 sequence (P21447 whole entry): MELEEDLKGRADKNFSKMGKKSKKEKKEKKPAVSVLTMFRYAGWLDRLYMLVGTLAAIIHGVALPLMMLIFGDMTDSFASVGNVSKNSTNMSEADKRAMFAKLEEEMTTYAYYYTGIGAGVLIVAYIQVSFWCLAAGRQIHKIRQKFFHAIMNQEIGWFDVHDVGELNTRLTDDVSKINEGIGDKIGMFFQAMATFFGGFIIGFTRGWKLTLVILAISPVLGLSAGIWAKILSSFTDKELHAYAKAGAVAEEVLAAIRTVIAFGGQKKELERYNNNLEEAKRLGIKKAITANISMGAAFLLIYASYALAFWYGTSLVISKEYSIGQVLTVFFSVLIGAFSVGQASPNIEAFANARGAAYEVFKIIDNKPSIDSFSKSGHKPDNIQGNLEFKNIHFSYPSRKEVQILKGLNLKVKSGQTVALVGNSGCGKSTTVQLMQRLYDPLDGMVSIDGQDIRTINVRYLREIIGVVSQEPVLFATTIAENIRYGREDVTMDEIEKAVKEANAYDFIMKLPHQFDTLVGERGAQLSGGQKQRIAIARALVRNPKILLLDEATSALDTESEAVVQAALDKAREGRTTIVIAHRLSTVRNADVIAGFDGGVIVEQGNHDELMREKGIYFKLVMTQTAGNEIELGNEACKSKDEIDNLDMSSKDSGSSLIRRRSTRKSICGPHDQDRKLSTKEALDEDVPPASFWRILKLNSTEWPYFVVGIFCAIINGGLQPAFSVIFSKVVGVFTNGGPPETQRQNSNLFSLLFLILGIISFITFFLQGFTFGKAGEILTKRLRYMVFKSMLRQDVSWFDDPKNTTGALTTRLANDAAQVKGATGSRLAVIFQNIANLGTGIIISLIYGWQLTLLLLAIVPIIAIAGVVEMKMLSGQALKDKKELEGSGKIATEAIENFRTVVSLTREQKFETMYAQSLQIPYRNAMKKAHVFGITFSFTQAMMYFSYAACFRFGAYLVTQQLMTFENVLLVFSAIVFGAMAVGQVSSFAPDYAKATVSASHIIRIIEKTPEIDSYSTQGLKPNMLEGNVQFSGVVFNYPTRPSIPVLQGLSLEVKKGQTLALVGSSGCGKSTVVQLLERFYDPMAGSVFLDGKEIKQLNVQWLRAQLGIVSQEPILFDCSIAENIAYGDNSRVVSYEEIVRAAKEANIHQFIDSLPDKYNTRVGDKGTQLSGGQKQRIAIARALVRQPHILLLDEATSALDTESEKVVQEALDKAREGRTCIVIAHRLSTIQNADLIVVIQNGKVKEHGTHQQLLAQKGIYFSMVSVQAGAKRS
Description: To examine the potential for drug-drug interactions through P-gp in vivo, the Kp values of compounds of this invention with (KpCSA) or without (KpCont.) cyclosporin A (20 mg/kg), a P-gp inhibitor, were calculated. The KpCSA value of Compound (I-72) was 1.14, and the calculated KpCSA KpCont. ratio was 0.9.
On the other hand the potential for drug-drug interactions through P-pg of amide compound B which has similar structure of Compound (1-72) was also examined in mice. The KpCont. and KpCSA were 0.04 and 0.84, respectively.

[5] = rows without asterisk (6 mg/kg per text)

| SMILES | pIC50 [1] | Inhibition ratio of Y5 agonist-induced food intake [2, 5] [%] | further results |
| --- | --- | --- | --- |
| CCS(=O)(=O)NC[C@H]1CC[C@H](Nc2ccc(-c3ccccc3)cn2)CC1 [Ij-4] |  | 88.2 |  |
| CC(C)S(=O)(=O)NC[C@H]1CC[C@H](Nc2ccc(OC3CCCC3)nn2)CC1 [Ij-52] | 9.00 |  |  |
| CC(C)(C)S(=O)(=O)NC[C@H]1CC[C@H](Nc2ccn(-c3ccccc3F)n2)CC1 [Ij-110] |  | 90.3 |  |
| CCS(=O)(=O)NC[C@H]1CC[C@H](Nc2ccn(-c3ccccc3F)n2)CC1 [Ij-112] |  |  | Body weight gain [3]: suppresses Body Weight Gain |
| CC(C)(C)S(=O)(=O)NC[C@H]1CC[C@H](Nc2ccc3ccccc3n2)CC1 [Ij-59] | 8.60 |  |  |
| CCS(=O)(=O)N[C@H]1CC[C@H](CNc2ccc(S(=O)(=O)c3ccc(F)cc3)cc2)CC1 [Ii-34] | 7.96 |  |  |
| CC(C)S(=O)(=O)NC[C@H]1CC[C@H](Nc2nc3cc(F)ccc3o2)CC1 [Ij-155] | 9.06 |  | Inhibition ratio of Y5 agonist-induced food intake ([2]; *Dose: 1.5 mg/kg): 56.1%* |
| C[C@@H]1CN(c2ccc(NC(=O)[C@H]3CC[C@H](NS(=O)(=O)C(C)(C)C)CC3)cc2)C[C@H](C)O1 [B, reference compound] |  |  | KpCSA/KpCont. ratio [4]: 20.5 |
| CCS(=O)(=O)NC[C@H]1CC[C@H](Nc2nc3ccccc3o2)CC1 [Ij-150] | 8.33 | 25.3 |  |
| CCS(=O)(=O)NC[C@H]1CC[C@H](Nc2nc3ccccc3s2)CC1 [Ij-149] | 9.04 | 62.6 |  |
| CCCn1c(=O)oc2cc(NC[C@H]3CC[C@H](NS(=O)(=O)CC)CC3)ccc21 [Ii-16] | 8.92 |  |  |
| Cn1c(=O)oc2cc(NC[C@H]3CC[C@H](NS(=O)(=O)C(C)(C)C)CC3)cc(F)c21 [Ii-45] |  | 76.2 | Body weight gain [3]: suppresses Body Weight Gain |
| C[C@@H]1CN(c2ccc(NC[C@H]3CC[C@H](NS(=O)(=O)C(C)(C)C)CC3)cc2)C[C@H](C)O1 [Compound I-72] |  |  | KpCSA/KpCont. ratio [4]: 0.9 |
| CC(C)S(=O)(=O)N[C@H]1CC[C@H](CNc2cc(F)cc(N3CCOCC3)c2)CC1 [Ii-55] |  | 64.3 |  |

Further compounds by rising pIC50 [1], results first:

| pIC50 [1] | Inhibition ratio of Y5 agonist-induced food intake [2, 5] [%] | SMILES | further results |
| --- | --- | --- | --- |
| 9.07 | 70.5 | CC(C)(C)S(=O)(=O)NC[C@H]1CC[C@H](Nc2nc3cc(F)ccc3o2)CC1 [Ij-158] |  |
| 9.15 |  | CC(C)S(=O)(=O)NC[C@H]1CC[C@H](Nc2ccc(C(F)(F)F)cn2)CC1 [Ij-1] |  |
| 9.16 |  | CCC(C)S(=O)(=O)NC[C@H]1CC[C@H](Nc2nc3ccc(F)cc3o2)CC1 (stereo partly shown) [Ij-161] | Inhibition ratio of Y5 agonist-induced food intake ([2]; *Dose: 1.5 mg/kg): 15.8%* |
| 9.17 |  | CC(C)S(=O)(=O)NC[C@H]1CC[C@H](Nc2nc3ccc(F)cc3o2)CC1 [Ij-156] | Inhibition ratio of Y5 agonist-induced food intake ([2]; **Dose: 12.5 mg/kg): 90.4%** |
| 9.22 | 83.2 | CC(C)(C)S(=O)(=O)NC[C@H]1CC[C@H](Nc2nc3ccc(F)cc3o2)CC1 [Ij-159] |  |
| 9.26 |  | CCC(C)S(=O)(=O)NC[C@H]1CC[C@H](Nc2nc3cc(F)ccc3o2)CC1 (stereo partly shown) [Ij-160] | Inhibition ratio of Y5 agonist-induced food intake ([2]; *Dose: 1.5 mg/kg): 36.6%* |
| 9.41 |  | CC(C)(C)S(=O)(=O)NC[C@H]1CC[C@H](Nc2nc3ccc(C(F)(F)F)cc3s2)CC1 [Ij-66] |  |
| 9.46 |  | CC(C)S(=O)(=O)NC[C@H]1CC[C@H](Nc2nc3ccc(F)cc3s2)CC1 [Ij-152] | Inhibition ratio of Y5 agonist-induced food intake ([2]; *Dose: 1.5 mg/kg): 62.6%* |
| 9.77 | 81.3 | CC(C)S(=O)(=O)NC[C@H]1CC[C@H](Nc2nc3cc(Cl)ccc3s2)CC1 [Ij-154] |  |
| 9.80 |  | CC(C)S(=O)(=O)NC[C@H]1CC[C@H](Nc2ccn(-c3ccccc3Cl)n2)CC1 [Ij-157] |  |
| 9.92 |  | CC(C)S(=O)(=O)NC[C@H]1CC[C@H](Nc2nc3cc(F)ccc3s2)CC1 [Ij-151] | Inhibition ratio of Y5 agonist-induced food intake ([2]; *Dose: 1.5 mg/kg): 78.4%* |
| 9.92 | 73.0 | CC(C)S(=O)(=O)NC[C@H]1CC[C@H](Nc2nc3cccc(F)c3s2)CC1 [Ij-153] |  |
| 10.00 |  | CC1CC(C)CN(c2cccc(NC[C@H]3CC[C@H](NS(=O)(=O)C(C)(C)C)CC3)c2)C1 (stereo partly shown) [Ii-1] |  |
